# Measurements: patent publication US20080108661A1, “Medicaments” (AstraZeneca AB, priority 2006, published 2008)
# Assays:
# [1] = test system: human articular chondrocytes (HAC)
# Protocol: (i) Isolation of Human Articular Chondrocytes (HAC) from OA Cartilage for Histamine stimulation. HAC are isolated from cartilage from osteoarthritic tissues removed at joint replacement. Cartilage is incubated overnight in 2 mg/ml collagenase in DMEM+10% FCS+PSG at 37° C., with shaking. The resulting cell suspension is filtered to remove undigested cartilage and the cells are centrifuged at 1200 rpm for 10 minutes. Cells are resuspended in DMEM plus 10% FCS PSG/NEAA/fungizone/gentamycin, plated at approx 5×10^−6 in a T-75 and grown to confluence. Cells are subsequently plated at approx 10,000 cells per well into 96 well plates for stimulation with histamine. Triplicate wells of first passage HAC are treated with either DMEM (10% or 0% FCS) alone (control), or DMEM (10% or 0% FCS) plus histamine (dose range 10 nM up to 1 mM). Cells are incubated at 37° C. for 24 hours, the conditioned medium harvested, and assayed for PGE2, MMP or cytokine production by enzyme linked immunosorbent assay (ELISA). […] For some experiments cells are incubated with specific antagonists for 20 minutes prior to, and in combination with, histamine stimulation.
# [2] = test system: murine articular knee joint; details: intra-articular histamine injection, mice
# Excerpt: (§1) (iii) In Vivo Functional Validation of Histamine-Induced Responses Murine Articular Knee Joint
# (§2) It is hypothesised that histamine released by trafficking mast cells or by the de novo synthesis of histamine by articular chondrocytes induces a H1-dependant increase in COX-2 mRNA expression and elevated PGE2 synthesis in synovial fibroblasts and articular chondrocytes. To evaluate the role of histamine in pathological processes in the joint, a pharmacodynamic mouse model was developed to investigate the effect of intra-articular injection (IAI) of histamine on joint swelling using calliper measurements, and measuring PGE2 and/or 11-6 levels from synovial knee joint ravages.
# (§3) Adult C57B16 mice were dosed with either vehicle or test compound 1 hour prior to intra-articular injection of histamine (5 μmol). Swelling was induced by injection of 6 μl of histamine/saline suspension into the knee joint cavity under inhalation anaesthesia with isoflurane. Joint swelling was quantified by calliper measurements taken at 1, 6, 12, 24, 36 and 48 hr. Terminal synovial fluid knee lavages were sampled and levels of the inflammatory mediator I1-6 were measured in the fluid from synovial knee joint ravages.
# [3] = test system: murine articular knee joint; test: Histamine-induced joint oedema, murine articular knee joint (calliper measurements); type: in vivo, mouse
# Excerpt: as §1, §2, §3
# [4] = test system: human articular chondrocytes (HAC); remark: listed apart in the source
# CCR3 = molecular target: T1, CCR3 (Homo sapiens, UniProt P51677); test: Chemokine (CCR3 ligand) stimulation of human OA cartilage explant, gene expression (low density array Q-PCR); type: cell-based
# T1 construct: Human osteoarthritic cartilage is obtained during total knee replacement surgery; from tissue; host or cells: human osteoarthritic knee articular cartilage explants (femoral condyles and tibial plateau)
# T1 sequence (P51677 1-355): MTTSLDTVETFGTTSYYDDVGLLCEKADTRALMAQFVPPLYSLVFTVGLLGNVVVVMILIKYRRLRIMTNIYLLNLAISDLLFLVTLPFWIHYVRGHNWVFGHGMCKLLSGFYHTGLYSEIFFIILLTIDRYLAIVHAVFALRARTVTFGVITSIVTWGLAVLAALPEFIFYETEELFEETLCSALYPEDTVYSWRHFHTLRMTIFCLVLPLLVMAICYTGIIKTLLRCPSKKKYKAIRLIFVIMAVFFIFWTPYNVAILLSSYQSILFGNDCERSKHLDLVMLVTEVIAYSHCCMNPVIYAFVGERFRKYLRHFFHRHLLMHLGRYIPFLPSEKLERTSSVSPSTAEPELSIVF
# Excerpt: (ii) Chemokine Stimulation of Human Cartilage Explant
# Human osteoarthritic cartilage is obtained during total knee replacement surgery. Full-depth cartilage slices are obtained from both the femoral condyles and the tibial plateau and explant discs removed using a 5 mm diameter KAI sterile dermal biopsy punch. After dissection, the explants are all pooled in a Petri dish. For each condition, sixteen explants are randomly taken from the Petri dish and cultured in polypropylene 96-well plates with phenol red free Dulbecco's Modified Eagle Medium (DMEM; Gibco, Grand Island, N.Y.), 150 μg/ml gentamicin, 1.5 μg/ml fungizone and 100 units/ml penicillin, 100 μg/ml streptomycin and L-Glutamine.
# After an initial 48 hour pre-stimulation, rest period, experimental reagents are added for 24, 48 or 96 hours. Explants are incubated with the appropriate concentration of compound alone, or DMSO as a control, for 20 minutes prior to addition of the chemokine. Cartilage is subsequently treated with either vehicle control (plus DMSO); chemokine (at 30-300 ng/ml) plus DMSO; or chemokine (30 ng/ml) plus the compound of Example 1. Conditioned media are collected 24, 48 or 96 hours post stimulation and stored at −20° C. prior to analysis. Cartilage explants are also collected and snap frozen in liquid nitrogen, prior to RNA extraction.
# Extraction of RNA from Cartilage Explants
# Each condition is composed of sixteen cartilage explant discs, which are pooled prior to snap freezing in liquid nitrogen. These pooled samples are ground to a fine powder under liquid nitrogen then resuspended in 10 ml trizol in polypropylene Oakridge tubes, and RNA extracted according to the manufacturer's protocol. The RNA pellet is resuspended in approx 500 μl RNAse and DNAse free water and then combined with 1.75 ml Qiagen RLT. RNA is further purified with Qiagen RNEasy mini columns (Qiagen Cat# 74104), as described in the manufacturer's protocol, including on column DNA digestion. The RNA obtained by these procedures is analysed using Agilent bioanalyser technology, according to the manufacturer's instructions, to determine the quantity and quality.
# Gene Expression Analysis: the 96 and 48 Gene Fingerprints Using Low Density Arrays (Q-PCR)
# Low-density gene arrays [quantitative polymerise chain reaction (Q-PCR) method] with either 96 or 48 genes pertinent to OA (as identified by Affymetrix microarray analysis of OA articular cartilage) are used to assess the effects of treating human diseased cartilage explants with the chemokines eotaxin-2 or RANTES, alone or in combination with the compound of Example 1. Gene expression changes were reported as fold change normalised against a standard non-affected gene: GAPDH.
# [5] = Eotaxin 2 stimulation, donor 014—04
molecule,measurement,setting,value
"NCCc1c[nH]cn1 [histamine, 2-(4-imidazolyl)-ethylamine]",release of PGE2,"[1]; histamine stimulation, n=6 (FIG. 2)",dose dependent increase
same,increase in release of IL-6 into the synovial fluid,[2],> 60%
same,increase in joint oedema compared to vehicle control animals,"[3]; intra-articular injection of histamine (5 μmol), C57B16 mice",5 fold
same,Cox2 mRNA expression levels,[4]; histamine stimulation,increase
O=C(O)COCCN1CCN(C(c2ccccc2)c2ccc(Cl)cc2)CC1 (stereo not shown) [cetirizine],inhibition of histamine-induced PGE2 release,[1]; 100 nM (FIG. 2),inhibited
same,inhibition of histamine-induced increase in Cox2 mRNA expression,[4]; 100 nM,inhibited
"O=C(NC[C@@H](O)CN1CCC(Oc2ccc(Cl)c(Cl)c2)CC1)c1sc(=O)[nH]c1C(F)(F)F [Example 1, N-{(2R)-3-[4-(3,4-Dichlorophenoxy)piperidin-1-yl]-2-hydroxypropyl}-2,3-dihydro-2-oxo-4-(trifluoromethyl)-5-thiazolecarboxamide benzenesulfonate Form A]","inhibition of CCR3 ligand-induced increase in ADAMTS4, MMP13, IL-6, IL-8 and MMP2 mRNA expression","CCR3; at 3×pA2, n=3 (FIG. 3)",inhibited
Clc1ccc2c(c1)CCc1cccnc1C2=C1CCNCC1 [desloratadine],histamine-induced joint swelling under treatment,"[3]; 5.1 mg/kg, dosed 1 hour prior to intra-articular histamine",almost completely ablated
"Eotaxin 2: the CCR3 ligand, a chemokine used to stimulate cartilage explants (protein, UniProt O00175 27-119, looked up) C-C motif chemokine 24: VVIPSPCCMFFVSKRIPENRVVSYQLSSRSTCLKAGVIFTTKKGQQFCGDPKQEWVQRYMKNLDAKQKKASPRARAVAVKGPVQRYPGNQTTC",increased expression of IL-6,CCR3; [5],14 fold
same,increased expression of IL-8,CCR3; [5],11 fold
same,elevation of periostin expression,CCR3; donor 014—04,2 fold
same,enhanced expression of ADAMTS4,CCR3; donor 014—04,3.6 fold
same,enhanced expression of ADAMTS 5,CCR3; donor 014—04,6 fold
